Test results as given in patent US9206193B2, “Substituted norindenoisoquinolines, syntheses thereof, and methods of use” (PURDUE RESEARCH FOUNDATION, priority 2010, dated 2015).
Like-named read-outs stand apart in the source and are kept apart here.

Assays:
[1] = test system: NCI-H460; test: NCI DTP antiproliferative screen, non-small cell lung cancer NCI-H460; assay type: cell-based, human
Protocol: (§1) The norindenoisoquinolines are examined for antiproliferative activity in the National Cancer Institute's Developmental Therapeutics Program (DTP) (Boyd & Paull, Some Practical Considerations and Applications of the National Cancer Institute In Vitro Anticancer Drug Discovery Screen. Drug Development Res. 1995, 34, 91-109; Shoemaker, The NCI60 Human Tumour Cell Line Anticancer Drug screen. Nat. Rev. Cancer 2006, 6, 813-823). Each compound is evaluated against approximately 55 human cell lines representing leukemia, melanoma, and cancers of the lung, colon, brain, breast, ovary, prostate and kidney. After an initial one-dose assay at a single high dose (10^−5 M), only compounds that satisfy the pre-determined threshold inhibition criteria are selected for further 5-dose assay.

[2] = test system: SF-295; test: NCI DTP antiproliferative screen, CNS cancer SF-295; assay type: cell-based, human
Protocol: as §1

[3] = test system: DU-145; test: NCI DTP antiproliferative screen, prostate DU-145; assay type: cell-based, human
Protocol: as §1

[4] = test system: HOP-62; test: NCI DTP antiproliferative screen, lung HOP-62; assay type: cell-based, human
Protocol: as §1

[5] = test system: RPMI-8226; test: NCI DTP antiproliferative screen, leukemia RPMI-8226; assay type: cell-based, human; details: read-out: GI50 against leukemia RPMI-8226
Protocol: as §1

[6] = test system: CCRF-CEM; test: NCI DTP antiproliferative screen, leukemia CCRF-CEM; assay type: cell-based, human; details: read-out: GI50 against leukemia CCRF-CEM
Protocol: as §1

[7] = test system: UACC-62; test: NCI DTP antiproliferative screen, melanoma UACC-62; assay type: cell-based, human
Protocol: as §1

[8] = test system: SR; test: NCI DTP antiproliferative screen, leukemia SR; assay type: cell-based, human
Protocol: as §1

[9] = test system: SN12C; test: NCI DTP antiproliferative screen, renal SN12C; assay type: cell-based, human
Protocol: as §1

[10] = test system: CAKI-1; test: NCI DTP antiproliferative screen, renal cancer CAKI-1; assay type: cell-based, human
Protocol: as §1

[11] = test system: IGROVI; test: NCI DTP antiproliferative screen, ovarian cancer IGROVI; assay type: cell-based, human
Protocol: as §1

[12] = test system: all human cancer cell lines successfully tested; test: NCI DTP antiproliferative screen, mean graph midpoint; assay type: cell-based; details: average GI50 of all cell lines tested; values outside 10^-8 to 10^-4 M taken as the limits
Protocol: as §1

[13] = test system: COLO 205; test: NCI DTP antiproliferative screen, colon cancer COLO 205; assay type: cell-based, human
Protocol: as §1

[14] = test system: U251; test: NCI DTP antiproliferative screen, CNS cancer U251; assay type: cell-based, human
Protocol: as §1

[15] = test system: HCC-2998; test: NCI DTP antiproliferative screen, colon cancer HCC-2998; assay type: cell-based, human
Protocol: as §1

[16] = test system: SF-539; test: NCI DTP antiproliferative screen, CNS SF-539; assay type: cell-based, human
Protocol: as §1

[17] = test system: HCT-116; test: NCI DTP antiproliferative screen, colon HCT-116; assay type: cell-based, human
Protocol: as §1

[18] = test system: ACHN; test: NCI DTP antiproliferative screen, renal cancer ACHN; assay type: cell-based, human
Protocol: as §1

[19] = test system: MCF7; test: NCI DTP antiproliferative screen, breast cancer MCF7; assay type: cell-based, human
Protocol: as §1

[20] = test system: OVCAR-3; test: NCI DTP antiproliferative screen, ovarian OVCAR-3; assay type: cell-based, human
Protocol: as §1

[21] = test system: MOLT-4; test: NCI DTP antiproliferative screen, leukemia MOLT-4; assay type: cell-based, human; details: read-out: GI50 against leukemia MOLT-4
Protocol: as §1

## COc1cc2cnc3c(c2cc1OC)Cc1c-3cc2c(c1Cn1ccnc1)OCO2 [Compound 14c, 2,3-Dimethoxy-8,9-methylenedioxy-10-(1H-imidazol-yl)methyl-11H-indeno[1,2-c]isoquinoline]
[1]; 1st run
  GI50: 160 nM
[1]; 2nd run
  GI50: 110 nM
[1]; Mean of runs
  GI50: 130 nM
[2]; 1st run
  GI50: 160 nM
[2]; 2nd run
  GI50: 130 nM
[2]; Mean of runs
  GI50: 150 nM
[3]
  GI50: 260 nM
[3]; 1st run, read-out: GI50 Prostate Cancer DU-145
  GI50: 260 nM
[3]; 2nd run, read-out: GI50 Prostate Cancer DU-145
  GI50: 410 nM
[3]; Mean of runs, read-out: GI50 Prostate Cancer DU-145
  GI50: 330 nM
[4]
  GI50: 350 nM
[5]
  GI50: 41 nM
[6]
  GI50: 37 nM
[7]
  GI50: 210 nM
[7]; 1st run, read-out: GI50 Melanoma UACC-62
  GI50: 210 nM
[7]; 2nd run, read-out: GI50 Melanoma UACC-62
  GI50: 180 nM
[7]; Mean of runs, read-out: GI50 Melanoma UACC-62
  GI50: 200 nM
[8]; 1st run, read-out: GI50 Leukemia SR
  GI50: 12 nM
[8]; Mean of runs, read-out: GI50 Leukemia SR
  GI50: 12 nM
[8]; read-out: GI50 against leukemia SR
  GI50: 12 nM
[9]
  GI50: 600 nM
[10]; 1st run
  GI50: 170 nM
[10]; 2nd run
  GI50: 400 nM
[10]; Mean of runs
  GI50: 290 nM
[11]; 1st run, read-out: GI50 Ovarian Cancer IGROVI
  GI50: 33 nM
[11]; 2nd run, read-out: GI50 Ovarian Cancer IGROVI
  GI50: 210 nM
[11]; Mean of runs, read-out: GI50 Ovarian Cancer IGROVI
  GI50: 120 nM
[11]; read-out: GI50 against human ovarian cancer cell IGROVI
  GI50: 121 nM
[12]
  MGM (mean graph midpoint for growth inhibition): 0.52 µM
[13]; 1st run
  GI50: 760 nM
[13]; 2nd run
  GI50: 280 nM
[13]; Mean of runs
  GI50: 510 nM
[14]; 1st run
  GI50: 150 nM
[14]; 2nd run
  GI50: 170 nM
[14]; Mean of runs
  GI50: 160 nM
[15]; 1st run
  GI50: 110 nM
[15]; 2nd run
  GI50: 2100 nM
[15]; Mean of runs
  GI50: 1100 nM
[16]
  GI50: 280 nM
[17]
  GI50: 160 nM
[18]; 1st run
  GI50: 270 nM
[18]; 2nd run
  GI50: 300 nM
[18]; Mean of runs
  GI50: 280 nM
[19]; 1st run, read-out: GI50 Breast Cancer MCF7
  GI50: 90 nM
[19]; 2nd run, read-out: GI50 Breast Cancer MCF7
  GI50: 89 nM
[19]; Mean of runs, read-out: GI50 Breast Cancer MCF7
  GI50: 90 nM
[19]; read-out: GI50 against human breast cancer cell MCF-7
  GI50: 90 nM
[20]
  GI50: 210 nM
[21]
  GI50: 60 nM
